In PubChem BioAssay AID248 (DTP/NCI, 2004):
“And” between values parts separate entries of the source, which are not always exact repeats. Identical values can stand only once. Inconclusive results and toxic doses are left out. Rule as the data show it: active = T/C of 150% or more; inactive = T/C below 125%. Square brackets hold non-standard residues; d marks the D form. Peptide text beside a SMILES is read from it. * marks the point of attachment. ξ: configuration not given here. Cbz = O=C(OCc1ccccc1)*; ξNle = CCCCC(N)C(=O)O

Test system: L1210 leukemia ip in BDF1 mice, survival T/C
Assay: NCI In Vivo Anticancer Drug Screen. Data for tumor model L1210 Leukemia (intraperitoneal) in B6D2F1 (BDF1) mice
Settings: endpoint: mean survival time, higher = longer survival
How it was run: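 Value reflects the ratio of survival in compound-treated mice to survival in vehicle-treated controls, with both groups carrying the same transplanted tumor.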

[1] = dose: 100.0 mg/kg/injection, schedule: Q04DX002 (ip), vehicle: saline
[2] = dose: 200.0 mg/kg/injection, schedule: Q04DX002 (ip), vehicle: saline
[3] = dose: 400.0 mg/kg/injection, schedule: Q04DX002 (ip), vehicle: saline
[4] = dose: 100.0 mg/kg/injection, schedule: Q04DX003 (ip), vehicle: saline with Tween-80
[5] = dose: 50.0 mg/kg/injection, schedule: Q01DX009 (ip), vehicle: saline with Tween-80
[6] = dose: 100.0 mg/kg/injection, schedule: Q01DX009 (ip), vehicle: saline with Tween-80
[7] = dose: 200.0 mg/kg/injection, schedule: Q01DX009 (ip), vehicle: saline with Tween-80
[8] = dose: 200.0 mg/kg/injection, schedule: Q04DX003 (ip), vehicle: saline with Tween-80
[9] = dose: 400.0 mg/kg/injection, schedule: Q04DX003 (ip), vehicle: saline with Tween-80
[10] = dose: 100.0 mg/kg/injection, schedule: Q04DX003 (ip), vehicle: Klucel (hydroxypropylcellulose) (HPC)
[11] = dose: 200.0 mg/kg/injection, schedule: Q04DX003 (ip), vehicle: Klucel (hydroxypropylcellulose) (HPC)
[12] = dose: 400.0 mg/kg/injection, schedule: Q04DX003 (ip), vehicle: Klucel (hydroxypropylcellulose) (HPC)
[13] = dose: 100.0 mg/kg/injection, schedule: Q01DX009 (ip), vehicle: Klucel (hydroxypropylcellulose) (HPC)
[14] = dose: 200.0 mg/kg/injection, schedule: Q01DX009 (ip), vehicle: Klucel (hydroxypropylcellulose) (HPC)
[15] = dose: 400.0 mg/kg/injection, schedule: Q01DX009 (ip), vehicle: Klucel (hydroxypropylcellulose) (HPC)
[16] = dose: 100.0 mg/kg/injection, schedule: Q01DX001 (ip), vehicle: saline
[17] = dose: 100.0 mg/kg/injection, schedule: Q01DX009 (ip), vehicle: saline
[18] = dose: 200.0 mg/kg/injection, schedule: Q01DX001 (ip), vehicle: saline
[19] = dose: 200.0 mg/kg/injection, schedule: Q01DX009 (ip), vehicle: saline
[20] = dose: 400.0 mg/kg/injection, schedule: Q01DX001 (ip), vehicle: saline
[21] = dose: 400.0 mg/kg/injection, schedule: Q01DX009 (ip), vehicle: saline
[22] = dose: 100.0 mg/kg/injection, schedule: Q04DX003 (ip), vehicle: saline
[23] = dose: 200.0 mg/kg/injection, schedule: Q04DX003 (ip), vehicle: saline
[24] = dose: 400.0 mg/kg/injection, schedule: Q04DX003 (ip), vehicle: saline

Measured: T/C

CC12C(=O)C(C(c3ccccc3)=C1c1ccccc1)C1C(=O)OC(=O)C12 (stereo not given)
inactive: dose: 75.0 mg/kg/injection, schedule: Q01DX001 (ip), vehicle: saline 95 % of control | dose: 150.0 mg/kg/injection, schedule: Q01DX001 (ip), vehicle: saline 86 % of control | dose: 300.0 mg/kg/injection, schedule: Q01DX001 (ip), vehicle: saline 95 % of control

COc1cc(OC)c(OC)cc1CNC1CCCCCCC1
inactive: dose: 25.0 mg/kg/injection, schedule: Q04DX002 (ip), vehicle: saline 102 % of control | dose: 50.0 mg/kg/injection, schedule: Q04DX002 (ip), vehicle: saline 91 % of control | [1] 105 % of control and 115 % of control

Cn1c2c(c(=O)n(C)c1=O)C(C=O)C(=O)N2 (stereo not given)
inactive: [1] 101 % of control | [2] 87 % of control | [3] 90 % of control

CCOC(=O)c1[nH]cnc1/N=N/N(C1CCCCC1)C1CCCCC1
inactive: dose: 50.0 mg/kg/injection, schedule: Q01DX001 (ip), vehicle: other 94 % of control | dose: 100.0 mg/kg/injection, schedule: Q01DX001 (ip), vehicle: other 97 % of control | dose: 200.0 mg/kg/injection, schedule: Q01DX001 (ip), vehicle: other 102 % of control | dose: 400.0 mg/kg/injection, schedule: Q01DX001 (ip), vehicle: other 92 % of control

O=C(/C=N/O)c1cccnc1
inactive: [4] 97 % of control

Cc1ccc(S(=O)(=O)N2CC(O)C(O)C2CO)cc1 (stereo not given)
inactive: dose: 50.0 mg/kg/injection, schedule: Q01DX005 (ip), vehicle: saline 96 % of control | dose: 100.0 mg/kg/injection, schedule: Q01DX005 (ip), vehicle: saline 104 % of control | dose: 200.0 mg/kg/injection, schedule: Q01DX005 (ip), vehicle: saline 102 % of control

CCCCC(NC(=O)OCc1ccccc1)C(=O)NCC(=O)OCC (stereo not given) (Cbz-[ξNle]-Gly-OEt)
inactive: [5] 97 % of control | [6] 97 % of control | [7] 104 % of control

O=C(CBr)c1ccc(/C=C/c2ccc(Cl)cc2)cc1
inactive: [6] 94 % of control

NC(CSS(=O)(=O)O)=NCCSc1ccc(Cl)cc1
inactive: dose: 6.25 mg/kg/injection, schedule: Q01DX009 (ip), vehicle: Klucel (hydroxypropylcellulose) (HPC) 95 % of control | dose: 12.5 mg/kg/injection, schedule: Q01DX009 (ip), vehicle: Klucel (hydroxypropylcellulose) (HPC) 104 % of control | dose: 12.5 mg/kg/injection, schedule: Q04DX002 (ip), vehicle: Klucel (hydroxypropylcellulose) (HPC) 100 % of control | dose: 25.0 mg/kg/injection, schedule: Q01DX009 (ip), vehicle: Klucel (hydroxypropylcellulose) (HPC) 107 % of control | dose: 25.0 mg/kg/injection, schedule: Q04DX002 (ip), vehicle: Klucel (hydroxypropylcellulose) (HPC) 100 % of control

N#Cc1ccccc1C(Cl)(Cl)Cl
inactive: dose: 100.0 mg/kg/injection, schedule: Q04DX002 (ip), vehicle: Klucel (hydroxypropylcellulose) (HPC) 100 % of control | dose: 200.0 mg/kg/injection, schedule: Q04DX002 (ip), vehicle: Klucel (hydroxypropylcellulose) (HPC) 106 % of control | dose: 400.0 mg/kg/injection, schedule: Q04DX002 (ip), vehicle: Klucel (hydroxypropylcellulose) (HPC) 100 % of control

O=c1c2ccccc2c(=O)c2c1ccc1[nH]c3ccccc3n(-c3ccccc3)c12
inactive: [4] 88 % of control | [8] 89 % of control | [9] 94 % of control

CC1(C)CCc2c(cc(OCc3ccccc3)c(-c3c(OCc4ccccc4)cc4c(c3O)CCC(C)(C)O4)c2O)O1
inactive: [10] 94 % of control | [11] 93 % of control | [12] 94 % of control

COc1ccc(C)cc1NC(=O)Nc1cccc(C(F)(F)F)c1
inactive: [13] 92 % of control | [14] 86 % of control | [15] 95 % of control

CC12CC3C(C(=O)O)C(C(=O)O)C1C(C(=O)O2)C3C(=O)O (stereo not given)
inactive: dose: 50.0 mg/kg/injection, schedule: Q01DX009 (ip), vehicle: saline 97 % of control | [16] 91 % of control | [17] 90 % of control | [18] 89 % of control | [19] 100 % of control | [20] 87 % of control

Cc1cc(Cl)ccc1O/C(=C/C(=O)O)C(=O)O
inactive: dose: 100.0 mg/kg/injection, schedule: Q04DX002 (ip), vehicle: saline with Tween-80 107 % of control | dose: 200.0 mg/kg/injection, schedule: Q04DX002 (ip), vehicle: saline with Tween-80 107 % of control | dose: 400.0 mg/kg/injection, schedule: Q04DX002 (ip), vehicle: saline with Tween-80 100 % of control

N#Cc1[nH]cnc1NN=NCCCl
inactive: dose: 12.5 mg/kg/injection, schedule: Q01DX001 (ip), vehicle: saline with Tween-80 109 % of control | dose: 25.0 mg/kg/injection, schedule: Q01DX001 (ip), vehicle: saline with Tween-80 104 % of control | dose: 50.0 mg/kg/injection, schedule: Q01DX001 (ip), vehicle: saline with Tween-80 116 % of control | dose: 100.0 mg/kg/injection, schedule: Q01DX001 (ip), vehicle: saline with Tween-80 118 % of control

CCN(CC)CCCN1C(=O)c2ccccc2S1(=O)=O
inactive: dose: 44.0 mg/kg/injection, schedule: Q01DX Z (ip), vehicle: saline 102 % of control | dose: 66.0 mg/kg/injection, schedule: Q01DX Z (ip), vehicle: saline 102 % of control | dose: 100.0 mg/kg/injection, schedule: Q01DX Z (ip), vehicle: saline 108 % of control

COc1cc2c(cc1OC)C1(NCC2)C(=O)Nc2c(Cl)cccc21 (stereo not given)
inactive: dose: 30.0 mg/kg/injection, schedule: Q04DX002 (ip), vehicle: saline 124 % of control | dose: 60.0 mg/kg/injection, schedule: Q04DX002 (ip), vehicle: saline 113 % of control | dose: 120.0 mg/kg/injection, schedule: Q04DX002 (ip), vehicle: saline 117 % of control

CCC/C(=N\NC(=O)c1ccccc1OC)c1ccccc1
inactive: [5] 105 % of control | [6] 97 % of control | [7] 105 % of control

COC(=O)Cc1cc(OC)c(OC)cc1I
inactive: [16] 105 % of control | [17] 96 % of control | [18] 100 % of control | [19] 102 % of control | [20] 102 % of control | [21] 102 % of control

CCOC(=O)c1c[nH]c2ccc(OC)cc2c1=O
inactive: [17] 96 % of control | [22] 98 % of control | [19] 98 % of control | [23] 102 % of control | [21] 96 % of control | [24] 100 % of control

CSc1ccc(NC(=O)Nc2ccccc2C)cc1
inactive: [13] 100 % of control | [10] 93 % of control | [14] 94 % of control | [11] 95 % of control | [15] 96 % of control | [12] 88 % of control

COC1Nc2cc3ccccc3cc2-c2ccccc21 (stereo not given)
inactive: dose: 100.0 mg/kg/injection, schedule: Q01DX001 (ip), vehicle: carboxymethylcellulose (CMC) 97 % of control | dose: 200.0 mg/kg/injection, schedule: Q01DX001 (ip), vehicle: carboxymethylcellulose (CMC) 97 % of control

CCOC(=O)c1c2c3c(c(Br)cc(C)c3[nH]c1=O)C(=O)c1ccccc1-2
inactive: [5] 97 % of control | [6] 101 % of control | [7] 101 % of control

O=C(COc1cc(Cl)c(Cl)cc1Cl)Nc1cccc(C(F)(F)F)c1
inactive: [1] 100 % of control | [2] 92 % of control | [3] 111 % of control

c1ccc(CC(Cc2ccccc2)=[N+]2C3CCCC2CC3)cc1
inactive: [22] 92 % of control | [23] 101 % of control | [24] 111 % of control

CN(C)C(=O)Nc1cccc(OC(=O)NCCCl)c1
inactive: [4] 96 % of control | [8] 94 % of control | [9] 94 % of control

O=C1C2CCN(CC2)C1C(c1ccccc1)c1ccccc1 (stereo not given)
inactive: [22] 96 % of control | [23] 102 % of control | [24] 100 % of control
